Results as given in patent publication US5382582A, “Methotrexate analogs and methods of using same” (priority 1993, dated 1995).
pIC50: −log10 of the molar value.

Tests used:
[1] = In vivo pharmacokinetics: 7-OH-MTX formed from drug in rabbit plasma; parameters: species or system New Zealand White rabbit; conditions: i.v., as compared with MTX
Experimental: A male New Zealand White rabbit was cannulated through the middle ear artery. A single bolus 16.7 mg/kg dose of drug was administered into the ear vein, and 1.0 ml blood samples were withdrawn from the cannulated artery into heparinized tubes at 0, 5, 15, 30, 45, 60, 75 and 90 minutes following drug administration. Plasma was separated from the samples by centrifugation at 1000 rpm, and was kept frozen until analysis.
HPLC analysis was performed as in Example 5, with the exception that the mobile phase was 0.1 M monobasic sodium phosphate and 0.1 M Tris-HCl in 20% methanol at a final pH of 6.7. p-Aminoacetophenone (10 μg/ml in water) was used as an internal standard.
Pharmacokinetic parameters were determined by the method of residual, a standard pharmacokinetic technique for resolving a curve into its various exponential components.
Thus tmax was calculated according to the formula:
tmax =2.3 log (ka /kc)/[…]

[2] = test system: human leukemia cell line K562; assay: Growth inhibition of myelogenous leukemia cells (cell counts, 120 h continuous exposure); assay type: cell-based; conditions: for pIC50: Homo sapiens, K562 Cells, 120 hours continuous exposure
Experimental: (§1) Two suspensious human leukemia cell lines were employed in this study. The myelogenous leukemia cell line K562 was cultured in RPMI 1640 (JRH Biosciences) containing 10% filtered fetal bovine serum (FBS; Irvine Scientific), and the lymphoblastic leukemia cell line CCRF/CEM was cultured in RPMI 1640 containing 20% FBS, 100 U/ml penicillin (GIBCO Laboratories, Grand Island, NY), and 100 μg/ml streptomycin (GIBCO). Cells were maintained at 37° C. with 5% CO2 in air, and were cultured using standard sterile tissue culture technique.
(§2) Prior to toxicity studies, cells were maintained 48 hours in the absence of added inhibitor. Logarithmically growing cells were inoculated at 1×10^4 cells/ml in tissue culture grade petri dishes (35×10 mm), and, following a suitable recovery period, were treated with chemical agents. Inhibitor concentrations ranging from 10^-12 to 10^-4 M were added to the cultures except for a control culture, which contained no added drug. Cell counts were performed by hematometer counting during 120 hours of continuous exposure to the drugs. The IC50 value was obtained by interpolation from graphs of percent growth inhibition plotted against drug concentration.

[3] = test system: human leukemia cell line CCRF/CEM; assay: Growth inhibition of lymphoblastic leukemia cells (cell counts, 120 h continuous exposure); assay type: cell-based
Experimental: as §1, §2

[4] = Tomcuf, J. Organic Chem., 26, 3351 (1961); cited from earlier work
[5] = high dose regimen; Barak et al. (1984); cited from earlier work
[6] = Half-life in rabbit liver homogenate
Experimental: (§3) For these experiments, freshly isolated liver from a New Zealand white rabbit was homogenized in 400 ml of cold buffer of pH 7.6 consisting of 10 mM Tris-HCl, 25 mM sucrose and 10 mMMgCl2. The homogenate was centrifuged at 1000× g for 20 minutes at 4° C. and the resulting pellet was resuspended in about 14 ml of the same buffer. […] Two ml samples of the homogenate were removed at 10 minute intervals. Samples were boiled 5 minutes to denature proteins, and then centrifuged to pellet cell debris. […] For HPLC analysis, a Perkin-Elmer 410 LC solvent delivery system and a 5-μm IBM ODS column (4.1×250 mm) with a C18 Guard column were employed. […] Detector output was recorded and integrated by a Perkin-Elmer LCI 100 integrator.

[7] = Formation of 7-OH-MTX (7-hydroxylation) in rabbit liver homogenate; conditions: as compared with MTX
Experimental: as §3, with “employed. The mobile phase consisted of 0.1 M monobasic sodium phosphate and 0.1 M Tris-HCl in 27% methanol at a final pH of 7.6.” for “employed.”

[8] = Rosowsky and Chen, J. Med. Chem., 18, 1308-11 (1974); cited from earlier work
[9] = man and monkeys; Borsi et al. (1990), Jacobs et al. (1976); cited from earlier work

## [2H]c1nc2nc(N)nc(N)c2nc1C([2H])([2H])N(C)c1ccc(C(=O)N[C@@H](CCC(=O)O)C(=O)O)cc1 (racemic) [7,9,9-d3 -MTX, N-[p-[N-(2,4-diamino-7-deutero-6-pteridinyldideuteromethyl)-N-methylamino]benzoyl]glutamic acid]
[1]
  Peak level of 7-OH-MTX less than that obtained from MTX by: about 70%
  Time to achieve 7-OH-MTX peak level as compared to that of MTX: more than twice as long
[2]
  pIC50: 7.40
[2]; K562 and CCRF/CEM cells, D,L-racemate
  IC50 compared with IC50 of MTX: greater than the IC50 values obtained for MTX
[3]
  pIC50: 7.32

## CN(Cc1cnc2nc(N)nc(N)c2n1)c1c(F)cc(C(=O)N[C@@H](CCC(=O)O)C(=O)O)cc1F [3', 5'-difluoro MTX]
[4]
  Biological activity as compared with MTX: little or no increase in biological activity as compared with MTX

## CN(Cc1nc2c(N)nc(N)nc2nc1O)c1ccc(C(=O)N[C@@H](CCC(=O)O)C(=O)O)cc1 [7-OH-MTX, 7-hydroxymethotrexate]
[5]
  Toxicity: the source of this toxicity

## [2H]c1nc2nc(N)nc(N)c2nc1CN(C)c1ccc(C(=O)N[C@@H](CCC(=O)O)C(=O)O)cc1 [7-d-MTX, N-{p-[N-(2,4-diamino-7-deutero-6-pterridinylmethyl)-N-methylamino]benzoyl}-L -glutamic acid]
[6]; rabbit liver homogenate, as compared with MTX
  Half-life greater than half-life for MTX by: about 60%
[2]
  pIC50: 8.22
[2]; K562 and CCRF/CEM cells, as compared with MTX
  IC50 lower than IC50 of MTX by: 15-25%
[7]
  Less 7-OH-MTX formed per unit time than from MTX: about 70%
[3]
  pIC50: 8.02

## Cc1nc2nc(N)nc(N)c2nc1CN(C)c1ccc(C(=O)N[C@@H](CCC(=O)O)C(=O)O)cc1 [7-methyl substituted MTX]
[8]
  Antifolate antagonism: impaired antifolate antagonism

## CN(Cc1cnc2nc(N)nc(N)c2n1)c1ccc(C(=O)N[C@@H](CCC(=O)O)C(=O)O)cc1 [MTX, N-[4-[[(2,4-diamino-6pteridinyl)methyl]methylamino]benzoyl]-L-glutamicacid, reference compound]
[9]
  Conversion in vivo to 7-OH-MTX: converted in vivo to 7-hydroxymethotrexate (7-OH-MTX)
[6]; rabbit, liver homogenate, pH 7.6
  Half-Life: 28.2 min
[2]
  pIC50: 8.10
[5]
  Toxicity: associated with renal and hepatic toxicity
[3]
  pIC50: 7.95
